# Data from PMC7660650, “Chemical Starting Matter for HNF4α Ligand Discovery and Chemogenomics” (International Journal of Molecular Sciences, 2020).
# Values joined by “and” are separate entries in the source; they are usually repeats but may differ in a detail not shown here. Identical values can stand only once.
# Target: T1, Gal4-HNF4α (human HNF4α LBD) (Homo sapiens, UniProt P41235)
# T1 construct: uniprot entry: P41235-1, residues 142-377; expressed in transfected cells; host or cells: HEK293T
# T1 sequence (P41235 142-377): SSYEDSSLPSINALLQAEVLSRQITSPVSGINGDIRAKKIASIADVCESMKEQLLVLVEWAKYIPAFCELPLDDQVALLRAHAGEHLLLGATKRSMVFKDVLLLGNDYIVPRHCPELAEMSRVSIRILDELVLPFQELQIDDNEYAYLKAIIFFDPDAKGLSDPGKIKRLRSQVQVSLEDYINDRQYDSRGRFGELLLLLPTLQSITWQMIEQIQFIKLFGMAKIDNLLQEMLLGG
# Experiment: Hybrid Gal4-HNF4α reporter gene assay in transiently transfected HEK293T cells
# Type: cell-based
# Conditions: Table S1, primary screening, 50 µM
row,Structure (SMILES),HNF4a-screening_activity_(mean_of_n=2)
1,"c1ccc(C(c2ccccc2)N2CCCNCC2)cc1 [Prestw-Frag-1817, C1CNCCN(C1)C(c1ccccc1)c1ccccc1]",0.7059 and 1.011
2,"NC(=O)COc1ccc(Cl)cc1 [Prestw-Frag-1833, NC(=O)COc1ccc(Cl)cc1]",1.468 and 0.8655
3,"Cc1ccccc1NC(=O)C(C)N (stereo not drawn) [Prestw-Frag-1856, CC(N)C(=O)Nc1ccccc1C]",1.062 and 1.114
4,"CS(=O)(=O)Nc1ccccc1Oc1ccccc1 [Prestw-Frag-1861, CS(=O)(=O)Nc1ccccc1Oc1ccccc1]",1.046 and 0.7818
5,"COC(=O)C(O)(c1ccccc1)C1CCCCC1 (stereo not drawn) [Prestw-Frag-1867, COC(=O)C(O)(C1CCCCC1)c1ccccc1]",1.91 and 1.155
6,"O=C1Nc2ccccc2Nc2ccccc21 [Prestw-Frag-1904, O=C1Nc2ccccc2Nc2ccccc12]",1.665 and 0.9141
7,"CCCOc1ccccc1C(=N)N [Prestw-Frag-1910, CCCOc1ccccc1C(N)=N]",1.045 and 1.109
8,"NCCOC(c1ccc(F)cc1)c1ccc(F)cc1 [Prestw-Frag-1925, NCCOC(c1ccc(F)cc1)c1ccc(F)cc1]",1.095 and 1.195
9,"CC(C)(C)NCC(O)c1ccccc1 (stereo not drawn) [Prestw-Frag-1929, CC(C)(C)NCC(O)c1ccccc1]",1.143
10,"OCCCN1CCN(c2ccccc2)CC1 [Prestw-Frag-1944, OCCCN1CCN(CC1)c1ccccc1]",1.133
11,"OCCN1CCN(c2ccccc2)CC1 [Prestw-Frag-1945, OCCN1CCN(CC1)c1ccccc1]",1.061
12,"CN1CCN(c2ccccc2)CC1 [Prestw-Frag-1946, CN1CCN(CC1)c1ccccc1]",1.048
13,"O=C(CCN1CCCCC1)c1ccccc1 [Prestw-Frag-1953, O=C(CCN1CCCCC1)c1ccccc1]",0.8568
14,"NS(=O)(=O)c1ccc(Cl)cc1 [Prestw-Frag-1977, NS(=O)(=O)c1ccc(Cl)cc1]",0.8584
15,"CCN(CC)CCOc1ccc(C(C)=O)cc1 [Prestw-Frag-2005, CCN(CC)CCOc1ccc(cc1)C(C)=O]",1.006
16,"O=C(O)C1(c2ccccc2)CCCC1 [Prestw-Frag-2049, OC(=O)C1(CCCC1)c1ccccc1]",0.9983
17,"NS(=O)(=O)c1ccc(C(=O)O)cc1 [Prestw-Frag-2123, NS(=O)(=O)c1ccc(cc1)C(O)=O]",0.9355
18,"CC(C)NCC(O)c1ccccc1 (stereo not drawn) [Prestw-Frag-2168, CC(C)NCC(O)c1ccccc1]",1.078
19,"COc1ccc(OC)c(C(C)O)c1 (stereo not drawn) [Prestw-Frag-2208, COc1ccc(OC)c(c1)C(C)O]",1.098
20,"COc1ccc(CN2CCNCC2)cc1 [Prestw-Frag-2212, COc1ccc(CN2CCNCC2)cc1]",1.195
21,"CS(=O)(=O)c1ccc(CO)cc1 [Prestw-Frag-2234, CS(=O)(=O)c1ccc(CO)cc1]",0.954
22,"CC(O)(c1ccccc1)c1ccccn1 (stereo not drawn) [Prestw-Frag-2237, CC(O)(c1ccccc1)c1ccccn1]",0.9394
23,"OC(c1ccccc1)c1ccccn1 (stereo not drawn) [Prestw-Frag-2238, OC(c1ccccc1)c1ccccn1]",0.8728
24,"CCCCOc1cc(C(=O)OC)ccc1N [Prestw-Frag-2253, CCCCOc1cc(ccc1N)C(=O)OC]",0.8932
25,"Nc1nc2ccccc2o1 [Prestw-Frag-2256, Nc1nc2ccccc2o1]",0.8277
26,"NC(=O)c1nc[nH]c1N [Prestw-Frag-2268, NC(=O)c1nc[nH]c1N]",0.9961
27,"OCc1ccncc1 [Prestw-Frag-2303, OCc1ccncc1]",0.9833

row,Structure (SMILES),HNF4a-screening_activity_(mean_of_n=2)
1,"N=C(N)CSCc1ccccc1 [Prestw-Frag-2348, NC(=N)CSCc1ccccc1]",1.134
2,"Clc1ccc(CNc2ccccn2)cc1 [Prestw-Frag-2356, Clc1ccc(CNc2ccccn2)cc1]",1.16
3,"O=C1c2ccccc2CN1c1ccccc1 [Prestw-Frag-2360, O=C1N(Cc2ccccc12)c1ccccc1]",1.345
4,"CCC(=O)Nc1ccc(CC(=O)O)cc1 [Prestw-Frag-2362, CCC(=O)Nc1ccc(CC(O)=O)cc1]",0.9958
5,"NC(=O)C(c1ccccc1)c1ccccc1 [Prestw-Frag-2366, NC(=O)C(c1ccccc1)c1ccccc1]",0.8824
6,"O=C(O)CCC(=O)Nc1ccccc1 [Prestw-Frag-2383, OC(=O)CCC(=O)Nc1ccccc1]",0.9265
7,"COC(=O)C(O)c1ccccc1 (stereo not drawn) [Prestw-Frag-2423, COC(=O)C(O)c1ccccc1]",1.193
8,"CCN(CCCCO)C(C)Cc1ccc(OC)cc1 (stereo not drawn) [Prestw-Frag-2440, CCN(CCCCO)C(C)Cc1ccc(OC)cc1]",1.361
9,"Nc1ccccn1 [Prestw-Frag-2443, Nc1ccccn1]",1.112
10,"COCCOC(=O)c1ccc(N)cc1 [Prestw-Frag-2453, COCCOC(=O)c1ccc(N)cc1]",1.565
11,"O=C1CCc2ccccc2N1 [Prestw-Frag-2464, O=C1CCc2ccccc2N1]",1.314
12,"Nc1ccccc1S(N)(=O)=O [Prestw-Frag-2473, Nc1ccccc1S(N)(=O)=O]",1.395
13,"CCOc1ccccn1 [Prestw-Frag-2477, CCOc1ccccn1]",1.372
14,"COC(=O)C(O)(c1ccccc1)C1CCCC1 (stereo not drawn) [Prestw-Frag-2484, COC(=O)C(O)(C1CCCC1)c1ccccc1]",1.411
15,"CC(=O)N(CCC(=O)O)c1ccccc1 [Prestw-Frag-2487, CC(=O)N(CCC(O)=O)c1ccccc1]",0.9613
16,"c1ccc2cnccc2c1 [Prestw-Frag-2493, c1ccc2cnccc2c1]",1.292
17,"COc1ccc(O)cc1O [Prestw-Frag-2499, COc1ccc(O)cc1O]",1.183
18,"c1cnccn1 [Prestw-Frag-2501, c1cnccn1]",1.207
19,"CC(=O)c1ccc(O)cc1O [Prestw-Frag-2506, CC(=O)c1ccc(O)cc1O]",0.9153
20,"OCc1ccc(O)cc1 [Prestw-Frag-2532, OCc1ccc(O)cc1]",1.028
21,"c1ccc(C2CCNCC2)cc1 [Prestw-Frag-2537, C1CC(CCN1)c1ccccc1]",0.9586
22,"Sc1nc2ccccc2[nH]1 [Prestw-Frag-2539, Sc1nc2ccccc2[nH]1]",1.302
23,"O=C(O)c1ccccn1 [Prestw-Frag-2541, OC(=O)c1ccccn1]",0.9518
24,"Oc1nsnc1N1CCOCC1 [Prestw-Frag-2562, Oc1nsnc1N1CCOCC1]",1.981
25,"ClC1(Cl)CC1c1ccccc1 (stereo not drawn) [Prestw-Frag-2566, ClC1(Cl)CC1c1ccccc1]",1.078
26,"COc1ccccc1N1CCN(CCCN)CC1 [Prestw-Frag-2569, COc1ccccc1N1CCN(CCCN)CC1]",1.212
27,"O=C(O)CNC(=O)c1ccccc1 [Prestw-Frag-2576, OC(=O)CNC(=O)c1ccccc1]",1.001
